Reference: DBAASP
Converted amounts (≈) assume the structure as drawn.

What was measured:
Assay in all cases: ≥ marks a high value that may be exact or a test limit, other limits are often not marked, values filed in µg/mL are converted to µM
[1] = tested on: Lacticaseibacillus casei ATCC 4646
[2] = tested on: Streptococcus mitis ATCC 903
[3] = tested on: Streptococcus gordonii Challis DL1
[4] = tested on: Streptococcus sanguinis NY101
[5] = tested on: Pseudomonas aeruginosa PAK
[6] = tested on: Streptococcus mutans UA159
[7] = tested on: Veillonella atypica PK1910
Staphylococcus aureus = tested on: Staphylococcus aureus
Salmonella typhimurium = tested on: Salmonella typhimurium
Pseudomonas aeruginosa = tested on: Pseudomonas aeruginosa
Escherichia coli UB1005 = tested on: Escherichia coli UB1005
Escherichia coli 55B5 = tested on: Escherichia coli 55B5
[8] = tested on: Staphylococcus aureus BCRC 10780
[9] = tested on: Klebsiella aerogenes BCRC 10370
Vibrio parahaemolyticus = tested on: Vibrio parahaemolyticus
[10] = tested on: Klebsiella oxytoca BCRC 13985
[11] = tested on: Vibrio alginolyticus BCRC 12829
Escherichia coli = tested on: Escherichia coli
[12] = tested on: Streptococcus equinus BCRC 14729
[13] = tested on: Vibrio anguillarum serotype O1
[14] = tested on: Staphylococcus xylosus BCRC 12930
Vibrio harveyi = tested on: Vibrio harveyi
[15] = tested on: Escherichia coli BCRC 10675
Streptococcus iniae = tested on: Streptococcus iniae
[16] = tested on: Enterobacter cloacae BCRC 10401
[17] = tested on: Listeria monocytogenes BCRC 14845
[18] = tested on: Vibrio parahaemolyticus BCRC 10806
Vibrio alginolyticus = tested on: Vibrio alginolyticus
[19] = tested on: Pseudomonas aeruginosa BCRC 10944
Lactococcus garvieae = tested on: Lactococcus garvieae
[20] = tested on: Yersinia enterocolitica BCRC 13999
[21] = tested on: Staphylococcus aureus BCRC 10781

Which results are given for `CC(C)C[C@H](NC(=O)[C@H](CC(C)C)NC(=O)[C@H](Cc1cnc[nH]1)NC(=O)[C@H](Cc1cnc[nH]1)NC(=O)[C@H](CC(C)C)NC(=O)[C@H](CCCCN)NC(=O)[C@H](CCCCN)NC(=O)[C@H](CC(C)C)NC(=O)[C@H](CC(C)C)NC(=O)[C@H](CCCN=C(N)N)NC(=O)[C@H](CCCN=C(N)N)NC(=O)[C@H](Cc1c[nH]c2ccccc12)NC(=O)[C@@H](N)CCCN=C(N)N)C(=O)N[C@@H](Cc1cnc[nH]1)C(N)=O` [RWRRLLKKLHHLLH]?
MIC [1]: 8.39 µM (≈ 16 µg/mL); MIC [2]: 16.8 µM (≈ 32 µg/mL); MIC [3]: 8.39 µM (≈ 16 µg/mL); MIC [4]: 8.39 µM (≈ 16 µg/mL); MIC [5]: 4.2 µM (≈ 8 µg/mL); MIC [6]: 4.2 µM (≈ 8 µg/mL); MIC [7]: 2.1 µM (≈ 4 µg/mL); MIC (Staphylococcus aureus): 8.39 µM (≈ 16 µg/mL)

With `CC[C@H](C)[C@H](NC(=O)[C@H](C)N)C(=O)N[C@@H](Cc1cnc[nH]1)C(=O)N[C@@H](CCCCN)C(=O)N[C@@H](CC(C)C)C(=O)N[C@@H](C)C(=O)N[C@@H](Cc1cnc[nH]1)C(=O)N[C@@H](CCCCN)C(=O)N[C@@H](CC(C)C)C(=O)N[C@@H](CC(C)C)C(=O)N[C@@H](CCCCN)C(=O)N[C@@H](CCCCN)C(=O)N[C@@H](CC(C)C)C(=O)N[C@@H](CC(C)C)C(=O)N[C@@H](CCCCN)C(=O)N[C@@H](C)C(=O)N[C@H](C(=O)N[C@@H](CCCCN)C(=O)N[C@@H](CCCCN)C(=O)N[C@@H](CC(C)C)C(=O)N[C@@H](C)C(=O)N[C@@H](CCCCN)C(=O)O)C(C)C` [AIHKLAHKLLKKLLKAVKKLAK] as the molecule, how does the MIC (Salmonella typhimurium) read?
The MIC was 6 µM (≈ 15 µg/mL).

What about the MIC (Pseudomonas aeruginosa) of the same molecule?
Its MIC is 4.5 µM (≈ 11.2 µg/mL).

And the MIC (Escherichia coli UB1005)?
Its MIC is 2.5 µM (≈ 6.23 µg/mL).

And the MIC (Staphylococcus aureus)?
Its MIC is 25 µM (≈ 62.3 µg/mL).

What about the MIC (Escherichia coli 55B5) of the same molecule?
The MIC was 2 µM (≈ 4.99 µg/mL).

With `CC[C@H](C)[C@H](NC(=O)[C@H](Cc1ccccc1)NC(=O)CNC(=O)CNC(=O)[C@H](CO)NC(=O)[C@H](Cc1ccccc1)NC(=O)[C@H](CCC(N)=O)NC(=O)[C@H](CCCCN)NC(=O)[C@H](CC(C)C)NC(=O)[C@H](CC(C)C)NC(=O)[C@H](CCCCN)NC(=O)[C@H](CC(C)C)NC(=O)[C@H](CC(C)C)NC(=O)[C@H](CCC(N)=O)NC(=O)[C@H](CCCCN)NC(=O)[C@H](CC(C)C)NC(=O)[C@H](CC(C)C)NC(=O)[C@H](CCC(N)=O)NC(=O)[C@@H](N)CC(C)C)C(=O)N[C@@H](CCCCN)C(=O)N[C@@H](Cc1cnc[nH]1)C(=O)N[C@@H](Cc1ccccc1)C(=O)N[C@H](C(=O)N[C@@H](Cc1cnc[nH]1)C(=O)N[C@@H](CCCN=C(N)N)C(=O)N[C@@H](Cc1ccccc1)C(N)=O)[C@@H](C)CC` [LQLLKQLLKLLKQFSGGFIKHFIHRF] as the molecule, how does the MIC [2] read?
The MIC was 10.1 µM (≈ 32 µg/mL).

What about the MIC [3] of the same molecule?
Its MIC is 5.07 µM (≈ 16 µg/mL).

And the MIC [4]?
The MIC was 5.07 µM (≈ 16 µg/mL).

What about the MIC [5] of the same molecule?
The MIC was 10.1 µM (≈ 32 µg/mL).

And the MIC [6]?
The MIC was 2.54 µM (≈ 8 µg/mL).

What about the MIC (Staphylococcus aureus) of the same molecule?
The MIC was 10.1 µM (≈ 32 µg/mL).

What does the source list for `CC[C@H](C)[C@H](NC(=O)[C@H](Cc1ccccc1)NC(=O)[C@H](CCCCN)NC(=O)[C@H](CCCCN)NC(=O)[C@H](C)NC(=O)[C@@H](NC(=O)[C@@H](NC(=O)[C@H](C)NC(=O)[C@H](Cc1ccccc1)NC(=O)[C@H](CCCCN)NC(=O)[C@H](CCCCN)NC(=O)[C@H](C)NC(=O)[C@H](C)NC(=O)[C@H](CC(N)=O)NC(=O)[C@H](C)NC(=O)CN)[C@@H](C)O)[C@@H](C)CC)C(=O)N[C@@H](CC(N)=O)C(=O)N[C@@H](Cc1ccc(O)cc1)C(=O)N[C@@H](CC(C)C)C(=O)N[C@@H](Cc1c[nH]c2ccccc12)C(=O)O` [GANAAKKFATIAKKFINYLW]?
MIC [8]: 7.09 µM (≈ 16 µg/mL); MIC [9]: 3.55 µM (≈ 8 µg/mL); MIC (Vibrio parahaemolyticus): 1.77 µM (≈ 4 µg/mL); MIC [10]: 14.2 µM (≈ 32 µg/mL); MIC [11]: 28.4 µM (≈ 64 µg/mL); MIC (Escherichia coli): 14.2 µM (≈ 32 µg/mL); MIC [12]: ≥ 56.7 µM; MIC [13]: 3.55 µM (≈ 8 µg/mL); MIC [14]: 3.55 µM (≈ 8 µg/mL); MIC (Vibrio harveyi): 3.55 µM (≈ 8 µg/mL); MIC [15]: 7.09 µM (≈ 16 µg/mL); MIC (Streptococcus iniae): ≥ 56.7 µM; MIC [16]: 3.55 µM (≈ 8 µg/mL); MIC [17]: 3.55 µM (≈ 8 µg/mL); MIC [18]: 28.4 µM (≈ 64 µg/mL); MIC (Vibrio alginolyticus): 3.55 µM (≈ 8 µg/mL); MIC [19]: 7.09 µM (≈ 16 µg/mL); MIC (Lactococcus garvieae): ≥ 56.7 µM; MIC [20]: 28.4 µM (≈ 64 µg/mL); MIC [21]: 7.09 µM (≈ 16 µg/mL)
